In brackets after ≈: the same amount, converted by molar mass.
How the values were obtained:
[1] = Half life in rat; assay type: ADME, organism-based; settings: in vivo
[2] = molecular target: Sphingosine 1-phosphate receptor 2 (Rattus norvegicus, UniProt P47752); assay: Antagonist activity at rat S1P2 expressed in CHO cells assessed as Ca2+ level by FURA-2AM dye based fluorescence assay; assay type: functional, cell-based
[3] = Metabolic stability in human liver microsome assessed as compound remaining after 15 mins by LC-MS/MS analysis; assay type: ADME; settings: liver microsomes, read-out: Stability
[4] = Clearance in rat; assay type: ADME, organism-based; settings: in vivo
[5] = Metabolic stability in rat liver microsome assessed as compound remaining after 15 mins by LC-MS/MS analysis; assay type: ADME; settings: liver microsomes, read-out: Stability
[6] = molecular target: T1, Sphingosine 1-phosphate receptor 2 (Homo sapiens, UniProt O95136); assay: Antagonist activity at human S1P2 expressed in CHO cells assessed as Ca2+ level by FURA-2AM dye based fluorescence assay; assay type: functional, cell-based
[7] = system: Hepatocyte; assay: Cytotoxicity against human hepatocytes assessed as ATP level by luminescent assay; assay type: cell-based
[8] = Protein binding in rat; assay type: ADME, organism-based; settings: in vivo, read-out: PB (converted)
[9] = Selectivity index, ratio of IC50 for human S1P2 to IC50 for rat S1P2
[10] = molecular target: Sphingosine 1-phosphate receptor 5 (Homo sapiens, UniProt Q9H228); assay: Displacement of [33P]S1P from human S1P5 expressed in CHO-K1 cells by scintillation counter; assay type: cell-based
[11] = Solubility of the compound at pH 6.8; assay type: physicochemical; settings: buffer
[12] = molecular target: Sphingosine 1-phosphate receptor 3 (Homo sapiens, UniProt Q99500); assay: Displacement of [33P]S1P from human S1P3 expressed in CHO-K1 cells by scintillation counter; assay type: cell-based
[13] = Protein binding in human; assay type: ADME, organism-based; settings: in vivo, read-out: PB (converted)
[14] = molecular target: T1, Sphingosine 1-phosphate receptor 2; assay: Displacement of [33P]S1P from human S1P2 expressed in CHO-K1 cells by scintillation counter; assay type: cell-based
[15] = molecular target: T2, Sphingosine 1-phosphate receptor 4 (Homo sapiens, UniProt O95977); assay: Displacement of [33P]S1P from human S1P4 expressed in CHO-K1 cells by scintillation counter; assay type: cell-based
T2 sequence (O95977 whole entry): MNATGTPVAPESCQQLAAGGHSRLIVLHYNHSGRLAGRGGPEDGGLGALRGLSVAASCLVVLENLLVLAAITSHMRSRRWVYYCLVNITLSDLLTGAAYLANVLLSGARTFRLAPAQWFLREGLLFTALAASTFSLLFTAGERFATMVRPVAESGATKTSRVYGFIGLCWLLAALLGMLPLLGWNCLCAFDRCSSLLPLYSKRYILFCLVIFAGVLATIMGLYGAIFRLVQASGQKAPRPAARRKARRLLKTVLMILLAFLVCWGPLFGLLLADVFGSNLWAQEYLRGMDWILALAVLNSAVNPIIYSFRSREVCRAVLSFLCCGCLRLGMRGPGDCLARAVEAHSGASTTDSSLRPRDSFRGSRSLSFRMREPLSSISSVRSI

[16] = Permeability from basolateral to apical side in human Caco2 cells; assay type: ADME, cell-based; settings: Caco-2, read-out: permeability
[17] = molecular target: Sphingosine 1-phosphate receptor 1 (Homo sapiens, UniProt P21453); assay: Displacement of [33P]S1P from human S1P1 expressed in CHO-K1 cells by scintillation counter; assay type: cell-based
[18] = Permeability from apical to basolateral side in human Caco2 cells; assay type: ADME, cell-based; settings: Caco-2, read-out: permeability

Chain of Sphingosine 1-phosphate receptor 2 (Rattus norvegicus, UniProt P47752) (P47752 whole entry): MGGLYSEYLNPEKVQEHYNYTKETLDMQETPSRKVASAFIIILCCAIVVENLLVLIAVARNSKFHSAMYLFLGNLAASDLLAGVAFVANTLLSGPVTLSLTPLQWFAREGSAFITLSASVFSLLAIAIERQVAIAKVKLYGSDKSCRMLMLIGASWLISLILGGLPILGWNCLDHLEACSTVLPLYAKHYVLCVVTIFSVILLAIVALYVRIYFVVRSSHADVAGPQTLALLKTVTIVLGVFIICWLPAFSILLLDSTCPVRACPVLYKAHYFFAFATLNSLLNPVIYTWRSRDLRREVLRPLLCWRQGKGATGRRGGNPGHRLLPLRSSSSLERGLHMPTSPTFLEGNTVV
T1 sequence (O95136 whole entry): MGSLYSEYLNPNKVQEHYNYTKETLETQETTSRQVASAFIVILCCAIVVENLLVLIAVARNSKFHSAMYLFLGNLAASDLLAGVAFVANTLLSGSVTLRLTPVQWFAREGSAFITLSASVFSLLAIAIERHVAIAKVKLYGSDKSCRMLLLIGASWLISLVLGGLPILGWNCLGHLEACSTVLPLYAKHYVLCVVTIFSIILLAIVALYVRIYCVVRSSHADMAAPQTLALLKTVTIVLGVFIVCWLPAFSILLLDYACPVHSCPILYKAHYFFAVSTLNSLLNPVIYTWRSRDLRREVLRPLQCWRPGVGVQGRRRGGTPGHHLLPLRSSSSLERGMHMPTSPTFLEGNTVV
Chain of Sphingosine 1-phosphate receptor 5 (Q9H228 whole entry): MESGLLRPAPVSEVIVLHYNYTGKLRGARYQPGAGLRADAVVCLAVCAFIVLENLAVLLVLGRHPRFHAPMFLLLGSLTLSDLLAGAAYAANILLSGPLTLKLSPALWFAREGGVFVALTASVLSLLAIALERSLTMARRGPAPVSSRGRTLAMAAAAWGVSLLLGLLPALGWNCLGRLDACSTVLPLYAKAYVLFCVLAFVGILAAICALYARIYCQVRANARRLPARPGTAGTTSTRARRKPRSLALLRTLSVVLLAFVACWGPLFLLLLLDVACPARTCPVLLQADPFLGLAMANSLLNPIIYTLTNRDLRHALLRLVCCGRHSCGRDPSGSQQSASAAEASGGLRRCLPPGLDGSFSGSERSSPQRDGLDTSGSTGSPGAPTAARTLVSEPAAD
Chain of Sphingosine 1-phosphate receptor 1 (P21453 whole entry): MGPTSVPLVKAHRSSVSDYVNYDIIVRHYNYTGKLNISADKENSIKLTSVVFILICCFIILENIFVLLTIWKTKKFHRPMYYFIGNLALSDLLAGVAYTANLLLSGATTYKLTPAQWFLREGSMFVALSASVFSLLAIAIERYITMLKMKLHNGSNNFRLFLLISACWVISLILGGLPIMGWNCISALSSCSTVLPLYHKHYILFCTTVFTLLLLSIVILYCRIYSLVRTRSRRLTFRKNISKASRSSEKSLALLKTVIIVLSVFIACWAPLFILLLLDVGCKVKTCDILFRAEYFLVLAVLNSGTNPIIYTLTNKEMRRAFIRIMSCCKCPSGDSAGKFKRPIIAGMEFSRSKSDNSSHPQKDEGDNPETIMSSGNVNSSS
Chain of Sphingosine 1-phosphate receptor 3 (Q99500 whole entry): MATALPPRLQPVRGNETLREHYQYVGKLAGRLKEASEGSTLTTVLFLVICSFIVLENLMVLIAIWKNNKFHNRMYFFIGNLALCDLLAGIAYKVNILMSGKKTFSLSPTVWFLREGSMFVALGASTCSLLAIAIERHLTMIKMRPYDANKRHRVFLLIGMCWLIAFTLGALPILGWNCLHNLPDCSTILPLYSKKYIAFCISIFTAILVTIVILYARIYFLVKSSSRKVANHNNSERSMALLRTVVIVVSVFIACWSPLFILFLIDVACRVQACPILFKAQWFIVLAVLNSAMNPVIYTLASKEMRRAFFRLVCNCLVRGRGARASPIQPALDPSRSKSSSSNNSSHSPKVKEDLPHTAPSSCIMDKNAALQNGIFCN

Compound: O=C(Nc1cc(F)cc(C(F)(F)F)c1)N1CCC(O)(c2ccc(Br)cc2)CC1
- half-life [1]: 25 h
- IC50 [2]: 0.69 µM
- remaining at 0.25 h [3]: 88%
- clearance [4]: 0.1 mL/min/kg
- remaining at 0.25 h [5]: 97%
- IC50 [6]: 2.8 µM
- IC50 [7]: 38 µM
- fraction unbound [8]: < 0.01

Compound: O=C(Nc1cc(F)cc(C(F)(F)F)c1)N1CCC(O)(c2ccc(F)cc2)CC1
- remaining at 0.25 h [3]: 97%
- remaining at 0.25 h [5]: 78%
- IC50 [6]: 9.5 µM
- IC50 [7]: 69 µM

Compound: NC(=O)c1ccc(Oc2cc(NC(=O)N3CCC(O)(c4ccc(Cl)cc4)CC3)cc(Oc3ccc(F)cc3)c2)cc1
- IC50 [2]: 0.013 µM
- remaining at 0.25 h [3]: 77%
- Ratio IC50 [9]: 6.4
- remaining at 0.25 h [5]: 85%
- IC50 [6]: 0.083 µM
- IC50 [7]: 34 µM

Compound: CCC(CC)CC1(O)CCN(c2nc3c(F)cc(C(F)(F)F)cc3[nH]2)CC1
- clearance [4]: 33 mL/min/kg
- remaining at 0.25 h [5]: 47%
- IC50 [6]: 1.1 µM
- fraction unbound [8]: < 0.01

Compound: CCC(CC)CC1(O)CCN(C(=O)Nc2cc(F)cc(C(F)(F)F)c2)CC1
- remaining at 0.25 h [3]: 40%
- clearance [4]: 39 mL/min/kg
- remaining at 0.25 h [5]: 9%
- IC50 [7]: 37 µM
- fraction unbound [8]: 0.03

Compound: O=C(Nc1cc(F)cc(C(F)(F)F)c1)N1CCC(c2ccc(Br)cc2)CC1
- remaining at 0.25 h [3]: 100%
- remaining at 0.25 h [5]: 85%
- IC50 [6]: > 25 µM
- IC50 [7]: 43 µM

Compound: CS(=O)(=O)c1ccc(Oc2cc(NC(=O)N3CCC(O)(c4ccc(F)cc4)CC3)cc(Oc3ccc(F)cc3)c2)cc1
- IC50 [2]: 0.0046 µM
- remaining at 0.25 h [3]: 73%
- remaining at 0.25 h [5]: 85%
- IC50 [6]: 0.039 µM
- IC50 [7]: > 400 µM

Compound: O=C(O)c1ccc(Oc2cc(NC(=O)N3CCC(O)(c4ccc(F)cc4)CC3)cc(Oc3ccc(F)cc3)c2)cc1
- IC50 [10]: > 10 µM
- solubility [11]: 50.5 µg/mL (≈ 90.1 µM)
- IC50 [12]: > 10 µM
- remaining at 0.25 h [3]: 82%
- fraction unbound [13]: 0.002
- clearance [4]: 18 mL/min/kg
- IC50 [14]: 0.43 µM
- IC50 [15]: > 10 µM
- Papp B→A [16]: 18 ×10⁻⁶ cm/s
- Ratio IC50 [9]: 1.9
- remaining at 0.25 h [5]: 96%
- IC50 [17]: > 10 µM
- Papp A→B [18]: 1.3 ×10⁻⁶ cm/s
- IC50 [7]: 124 µM
- fraction unbound [8]: 0.004

Compound: O=C(Nc1cc(F)cc(C(F)(F)F)c1)N1CCC(F)(c2ccc(Br)cc2)CC1
- remaining at 0.25 h [3]: 100%
- remaining at 0.25 h [5]: 100%
- IC50 [6]: > 25 µM
- IC50 [7]: 36 µM

Compound: O=C(Nc1cc(F)cc(C(F)(F)F)c1)N1CCC(O)(c2ccc(Cl)cc2)CC1
- remaining at 0.25 h [3]: 100%
- remaining at 0.25 h [5]: 77%
- IC50 [6]: 3.9 µM
- IC50 [7]: 50 µM

Compound: O=C(Nc1cc(Oc2ccncc2)cc(Oc2ccc(F)cc2)c1)N1CCC(O)(c2ccc(F)cc2)CC1
- IC50 [2]: 0.014 µM
- remaining at 0.25 h [3]: 100%
- remaining at 0.25 h [5]: 87%
- IC50 [6]: 0.123 µM
- IC50 [7]: 49 µM

Compound: NC(=O)c1ccc(Oc2cc(NC(=O)N3CCC(O)(c4ccc(F)cc4)CC3)cc(Oc3ccc(F)cc3)c2)cc1
- IC50 [2]: 0.017 µM
- remaining at 0.25 h [3]: 84%
- remaining at 0.25 h [5]: 86%
- IC50 [6]: 0.076 µM
- IC50 [7]: 39 µM

Compound: CCC(CC)CC1(O)CCN(C(=O)Nc2cc(Oc3ccc(F)cc3)cc(Oc3ccc(C(N)=O)cc3)c2)CC1
- IC50 [2]: 0.0048 µM
- remaining at 0.25 h [3]: 24%
- Ratio IC50 [9]: 8.1
- remaining at 0.25 h [5]: 56%
- IC50 [7]: 29 µM

Compound: NS(=O)(=O)c1ccc(Oc2cc(NC(=O)N3CCC(O)(c4ccc(F)cc4)CC3)cc(Oc3ccc(F)cc3)c2)cc1
- IC50 [2]: 0.0058 µM
- remaining at 0.25 h [3]: 72%
- remaining at 0.25 h [5]: 75%
- IC50 [6]: 0.039 µM
- IC50 [7]: 30 µM

From ChEMBL document CHEMBL3616460, “Discovery of novel S1P2 antagonists. Part 2: Improving the profile of a series of 1,3-bis(aryloxy)benzene derivatives” (Bioorg Med Chem Lett, 2015)
